The results in this text go back to patent US20190374533A1, “COMPOUNDS AND METHODS FOR INHIBITING NHE-MEDIATED ANTIPORT IN THE TREATMENT OF DISORDERS ASSOCIATED WITH FLUID RETENTION OR SALT OVERLOAD AND GASTROINTESTINAL TRACT DISORDERS” (Ardelyx, Inc., priority 2008, published 2019).

Assay [1] deals with absorption of sodium from the intestinal lumen. In words: Inhibition of intestinal sodium absorption in rats. The conditions noted are these: Sprague Dawley rats, 0.1 mg/kg oral gavage, 13-hours post-dose. It is filed as in vivo, rat. The method, then:
Urinary sodium excretion and fecal form were measured to assess the ability of selected example compounds to inhibit the absorption of sodium from the intestinal lumen. Eight-week old, male, Sprague Dawley rats were purchased from Envigo (Livermore, Calif.), were housed 2 per cage and acclimated for at least 48 hours before study initiation. Animals were fed Harlan Teklad Global TD.160470 rodent chow (Maddison, Wis.), standard laboratory rodent chow Harlan Teklad Global 2018 with the addition of 0.4% inorganic phosphorous. […] At 13-hours post-dose, urine samples were collected and fecal form was assessed. In addition, the weight of food consumed over the 13-hour period was measured and recorded. Fecal forms were scored according to a common scale associated with increasing fecal water to the wettest observation in the cage's collection funnel (1, normal pellet; 2, pellet adhering to sides of collection funnel due to moisture; 3, loss of normal pellet shape: 4, complete loss of shape with a blotting pattern; 5, liquid fecal streams evident). Fecal form score (FFS) was calculated for each group as the median of each individual rat's FFS within the group and reported in Table 12. Fecal samples were dried using a lyophilizer for at least 3 days, following which dry weight was recorded and fecal fluid content was calculated based on the difference between the wet and dry stool weights. […]

For assay [2], the system named is human duodenum monolayer culture. The assay is described as follows: Increased trans-epithelial resistance (TEER) in human organoid monolayer cell cultures. The class given is cell-based. The conditions noted are these: 1 μM apical, baseline corrected. Here is the method: Transwells were 0.4 μm pore polyester membrane 24-well Transwell inserts (Corning). Cultures were incubated at 37° C. in 5% CO2.
Human duodenum organoids were cultured in WENRNAS (Wnt, EGF, noggin, R-spondin1. Nicotinamide, A83-01, SB202190) and typically grown for 7-12 days before being used to plate monolayer cultures. On day 0, organoid cultures embedded in Matrigel were treated with TrypLE Express to break organoids into small pieces and/or single cells. The cells were resuspended to 0.5×10^6 cells/mL in SBM containing WENRAY (Wnt. EGF, noggin, R-spondin1, A83-01, Y-27632). Following this step, 200 μL of cell suspension was plated into the apical side of a 24-well Transwell (100,000 cells/well) and 600 μL of SBM with WENRAY was added to the basolateral side. Duodenum cells were differentiated with ENA (EGF, noggin, A83-01) on day 3. […]
Each human duodenum monolayer culture well was washed twice with fresh SBM on the apical side on day 6 or day 7 before dosing. […] Transepithelial electrical resistance (TEER) was used as a quantitative technique to measure of tight junction permeability. TEER values were recorded (MERS00002. Millipore) before dosing and 30 mins and 1 hr after dosing for all wells. […] Baseline corrected TEER for each example compound was compared to the average of the DMSO wells and expressed as a percent TEER of vehicle control.

Where a name gives a salt, the structure may show the parent alone.

Consider `CN1Cc2c(Cl)cc(Cl)cc2[C@H](c2cccc(S(=O)(=O)NCCOCCOCCNC(=O)Nc3ccc(NC(=O)NCCOCCOCCNS(=O)(=O)c4cccc([C@@H]5CN(C)Cc6c(Cl)cc(Cl)cc65)c4)cc3)c2)C1` (single isomer, unassigned) [Example 203, (S or R)—N,N′-(2,2′-(2,2′-(2,2′-(1,4-phenylenebis(azanediyl))bis(oxomethylene)bis(azanediyl)bis(ethane-2,1-diyl))bis(oxy)bis(ethane-2,1-diyl))bis(oxy)bis(ethane-2,1-diyl))bis(3-((S or R)-6,8-dichloro-2-methyl-1,2,3,4-tetrahydroisoquinolin-4-yl)benzenesulfonamide) bis-hydrochloride salt], for which the “Urinary Na (% of Vehicle, out/in)” value in assay [1] (normalized to dietary sodium intake) is given as “C (<40%)”. Further, the “FFS (1-5)” value in assay [1] (fecal form score, group median) came to 3.

With `CN1Cc2c(Cl)cc(Cl)cc2[C@H](c2cccc(S(=O)(=O)NCCOCCOCCNC(=O)NCCCCNC(=O)NCCOCCOCCNS(=O)(=O)c3cccc([C@@H]4CN(C)Cc5c(Cl)cc(Cl)cc54)c3)c2)C1` (single isomer, unassigned) [Example 202, (S or R)—N,N′-(10,17-dioxo-3,6,21,24-tetraoxa-9,11,16,18-tetraazahexacosane-1,26-diyl)bis(3-((S)-6,8-dichloro-2-methyl-1,2,3,4-tetrahydroisoquinolin-4-yl)benzenesulfonamide) bis-hydrochloride salt], in assay [2] (30 mins after dosing), the “TEER at 30 minutes (% of Vehicle)” value is listed as “B (100-130%)”. The “TEER at 60 minues (% of Vehicle)” value in assay [2] (1 hr after dosing) is on record as “B (100-130%)”.
